Where “and” joins values, the source holds several entries; their conditions need not be identical. Equal values may be shown once.
Test system: MDA-MB-231 complex spheroid viability
Assay: Anticancer human tumor MDA-MB-231/ATCC cell line growth inhibition;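 also: drug exposure lasted 7 days starting on day 3 of spheroid growth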
Details: for viability, T/C: stronger effect = lower value
In short: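 Multicellular complex spheroids of tumor cells with human endothelial cells (HUVEC) and mesenchymal stem cells; the LSD1 inhibitor iadademstat was combined with standard-of-care or investigational agents. Top concentration at or near clinical Cmax, half-log dilutions; final DMSO ≤0.25%.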

[1] = curve of first compound, second compound 0.1 µM
[2] = curve of first compound, second compound 0.316 µM
[3] = curve of first compound, second compound 1 µM
[4] = curve of first compound, second compound 3.16 µM
[5] = curve of first compound, second compound 10 µM
[6] = second compound 0.1 µM, first compound 0.0316 µM
[7] = second compound 0.1 µM, first compound 0.1 µM
[8] = second compound 0.1 µM, first compound 0.316 µM
[9] = second compound 0.1 µM, first compound 1 µM
[10] = second compound 0.1 µM, first compound 3.16 µM
[11] = second compound 0.1 µM, first compound 10 µM
[12] = second compound 0.316 µM, first compound 0.0316 µM
[13] = second compound 0.316 µM, first compound 0.1 µM
[14] = second compound 0.316 µM, first compound 0.316 µM
[15] = second compound 0.316 µM, first compound 1 µM
[16] = second compound 0.316 µM, first compound 3.16 µM
[17] = second compound 0.316 µM, first compound 10 µM
[18] = second compound 1 µM, first compound 0.0316 µM
[19] = second compound 1 µM, first compound 0.1 µM
[20] = second compound 1 µM, first compound 0.316 µM
[21] = second compound 1 µM, first compound 1 µM
[22] = second compound 1 µM, first compound 3.16 µM
[23] = second compound 1 µM, first compound 10 µM
[24] = second compound 3.16 µM, first compound 0.0316 µM
[25] = second compound 3.16 µM, first compound 0.1 µM
[26] = second compound 3.16 µM, first compound 0.316 µM
[27] = second compound 3.16 µM, first compound 1 µM
[28] = second compound 3.16 µM, first compound 3.16 µM
[29] = second compound 3.16 µM, first compound 10 µM
[30] = second compound 10 µM, first compound 0.0316 µM
[31] = second compound 10 µM, first compound 0.1 µM
[32] = second compound 10 µM, first compound 0.316 µM
[33] = second compound 10 µM, first compound 1 µM
[34] = second compound 10 µM, first compound 3.16 µM
[35] = second compound 10 µM, first compound 10 µM
[36] = second compound 0.1 µM, first compound 0.00316 µM
[37] = second compound 0.1 µM, first compound 0.01 µM
[38] = second compound 0.316 µM, first compound 0.00316 µM
[39] = second compound 0.316 µM, first compound 0.01 µM
[40] = second compound 1 µM, first compound 0.00316 µM
[41] = second compound 1 µM, first compound 0.01 µM
[42] = second compound 3.16 µM, first compound 0.00316 µM
[43] = second compound 3.16 µM, first compound 0.01 µM
[44] = second compound 10 µM, first compound 0.00316 µM
[45] = second compound 10 µM, first compound 0.01 µM

Nc1ccn(C2OC(CO)C(O)C2(F)F)c(=O)n1 (centres undefined) + NC1CCC(NC2CC2c2ccccc2)CC1
IC50 [1]: < 0.949 nM
IC50 [2]: < 0.949 nM
IC50 [3]: < 0.949 nM
IC50 [4]: < 0.949 nM
IC50 [5]: < 0.949 nM
viability, T/C (second compound 0.1 µM, first compound 0.000949 µM): 23.4%
viability, T/C (second compound 0.1 µM, first compound 0.003 µM): 18.9%
viability, T/C (second compound 0.1 µM, first compound 0.00949 µM): 17.4%
viability, T/C (second compound 0.1 µM, first compound 0.03 µM): 15.9%
viability, T/C (second compound 0.1 µM, first compound 0.0949 µM): 8.32%
viability, T/C (second compound 0.1 µM, first compound 0.3 µM): 6.14%
viability, T/C (second compound 0.316 µM, first compound 0.000949 µM): 24.3%
viability, T/C (second compound 0.316 µM, first compound 0.003 µM): 19.6%
viability, T/C (second compound 0.316 µM, first compound 0.00949 µM): 19%
viability, T/C (second compound 0.316 µM, first compound 0.03 µM): 16%
viability, T/C (second compound 0.316 µM, first compound 0.0949 µM): 8.93%
viability, T/C (second compound 0.316 µM, first compound 0.3 µM): 6.74%
viability, T/C (second compound 1 µM, first compound 0.000949 µM): 22.2%
viability, T/C (second compound 1 µM, first compound 0.003 µM): 17.9%
viability, T/C (second compound 1 µM, first compound 0.00949 µM): 18.2%
viability, T/C (second compound 1 µM, first compound 0.03 µM): 13.6%
viability, T/C (second compound 1 µM, first compound 0.0949 µM): 8.49%
viability, T/C (second compound 1 µM, first compound 0.3 µM): 7.33%
viability, T/C (second compound 3.16 µM, first compound 0.000949 µM): 23.7%
viability, T/C (second compound 3.16 µM, first compound 0.003 µM): 18.9%
viability, T/C (second compound 3.16 µM, first compound 0.00949 µM): 17.2%
viability, T/C (second compound 3.16 µM, first compound 0.03 µM): 12.8%
viability, T/C (second compound 3.16 µM, first compound 0.0949 µM): 9.01%
viability, T/C (second compound 3.16 µM, first compound 0.3 µM): 6.68%
viability, T/C (second compound 10 µM, first compound 0.000949 µM): 19.2%
viability, T/C (second compound 10 µM, first compound 0.003 µM): 19.2%
viability, T/C (second compound 10 µM, first compound 0.00949 µM): 14.4%
viability, T/C (second compound 10 µM, first compound 0.03 µM): 10.3%
viability, T/C (second compound 10 µM, first compound 0.0949 µM): 6.87%
viability, T/C (second compound 10 µM, first compound 0.3 µM): 5.84%

COc1ccc([C@@H](O)c2cc(-c3ncnc4cc(N5CCOCC5)ccc34)c(F)cc2Cl)nn1 + NC1CCC(NC2CC2c2ccccc2)CC1
IC50 [1]: 483 nM
IC50 [2]: 555 nM
IC50 [3]: 669 nM
IC50 [4]: 505 nM
IC50 [5]: 280 nM
viability, T/C [6]: 89.3%
viability, T/C [7]: 75.7%
viability, T/C [8]: 55.6%
viability, T/C [9]: 40.3%
viability, T/C [10]: 27.9%
viability, T/C [11]: 24.6%
viability, T/C [12]: 91.5%
viability, T/C [13]: 79.3%
viability, T/C [14]: 59.1%
viability, T/C [15]: 41.2%
viability, T/C [16]: 27.6%
viability, T/C [17]: 26%
viability, T/C [18]: 96.6%
viability, T/C [19]: 79.8%
viability, T/C [20]: 65.7%
viability, T/C [21]: 41.9%
viability, T/C [22]: 28.9%
viability, T/C [23]: 23.8%
viability, T/C [24]: 74.2%
viability, T/C [25]: 72.1%
viability, T/C [26]: 54.2%
viability, T/C [27]: 42.3%
viability, T/C [28]: 27.2%
viability, T/C [29]: 24.4%
viability, T/C [30]: 62.8%
viability, T/C [31]: 61%
viability, T/C [32]: 47.5%
viability, T/C [33]: 36.5%
viability, T/C [34]: 28%
viability, T/C [35]: 24.3%

COc1cc(Nc2ncc3c(n2)-c2ccc(Cl)cc2C(c2c(F)cccc2OC)=NC3)ccc1C(=O)O + NC1CC1c1ccc(-c2cccc(O)c2)cc1
IC50 [1]: < 3.16 nM
IC50 [2]: < 3.16 nM
IC50 [3]: < 3.16 nM
IC50 [4]: < 3.16 nM
IC50 [5]: < 3.16 nM
viability, T/C [36]: 43.8%
viability, T/C [37]: 48.9%
viability, T/C [6]: 43%
viability, T/C [7]: 40.8%
viability, T/C [8]: 32.4%
viability, T/C [9]: 21.9%
viability, T/C [38]: 40.7%
viability, T/C [39]: 40%
viability, T/C [12]: 38.5%
viability, T/C [13]: 34.7%
viability, T/C [14]: 27.3%
viability, T/C [15]: 21.4%
viability, T/C [40]: 37.5%
viability, T/C [41]: 39.9%
viability, T/C [18]: 38.3%
viability, T/C [19]: 38%
viability, T/C [20]: 25.1%
viability, T/C [21]: 18.6%
viability, T/C [42]: 41.4%
viability, T/C [43]: 41.4%
viability, T/C [24]: 41.1%
viability, T/C [25]: 35%
viability, T/C [26]: 28.1%
viability, T/C [27]: 18.9%
viability, T/C [44]: 30.7%
viability, T/C [45]: 33%
viability, T/C [30]: 31.3%
viability, T/C [31]: 31.1%
viability, T/C [32]: 22.4%
viability, T/C [33]: 15.7%

CC(C)c1c(-c2ccccc2)nc2c(C#N)c[nH]n2c1=O + NC1CCC(NC2CC2c2ccccc2)CC1
IC50 [1]: > 10000 nM
IC50 [2]: > 10000 nM
IC50 [3]: > 10000 nM
IC50 [4]: > 10000 nM
IC50 [5]: > 10000 nM
viability, T/C [6]: 108%
viability, T/C [7]: 108%
viability, T/C [8]: 101%
viability, T/C [9]: 102%
viability, T/C [10]: 105%
viability, T/C [11]: 103%
viability, T/C [12]: 109%
viability, T/C [13]: 106%
viability, T/C [14]: 106%
viability, T/C [15]: 111%
viability, T/C [16]: 110%
viability, T/C [17]: 104%
viability, T/C [18]: 101%
viability, T/C [19]: 100%
viability, T/C [20]: 102%
viability, T/C [21]: 109%
viability, T/C [22]: 106%
viability, T/C [23]: 103%
viability, T/C [24]: 86.6%
viability, T/C [25]: 90.4%
viability, T/C [26]: 87.6%
viability, T/C [27]: 88.5%
viability, T/C [28]: 94.2%
viability, T/C [29]: 87.3%
viability, T/C [30]: 64.5%
viability, T/C [31]: 69.2%
viability, T/C [32]: 70.2%
viability, T/C [33]: 73.7%
viability, T/C [34]: 71.1%
viability, T/C [35]: 66.5%

CCN(c1cc(-c2ccc(CN3CCOCC3)cc2)cc(C(=O)NCc2c(C)cc(C)[nH]c2=O)c1C)C1CCOCC1
viability, T/C (compound 0.00949 µM): 90.6% and 108%
viability, T/C (compound 0.03 µM): 93.6% and 88.1%
viability, T/C (compound 0.0949 µM): 82.4% and 61.5%
viability, T/C (compound 0.3 µM): 74.9% and 42.3%
viability, T/C (compound 0.949 µM): 66.3% and 25.8%
viability, T/C (compound 3 µM): 57.7% and 15%

O=C(C=Cn1cnc(-c2cc(C(F)(F)F)cc(C(F)(F)F)c2)n1)NNc1cnccn1 + NC1CC1c1ccc(-c2cccc(O)c2)cc1
IC50 [1]: < 3.16 nM
IC50 [2]: < 3.16 nM
IC50 [3]: < 3.16 nM
IC50 [4]: < 3.16 nM
IC50 [5]: < 3.16 nM
viability, T/C [36]: 27.7%
viability, T/C [37]: 27.4%
viability, T/C [6]: 13.1%
viability, T/C [7]: 5.67%
viability, T/C [8]: 4.44%
viability, T/C [9]: 5.61%
viability, T/C [38]: 28.6%
viability, T/C [39]: 27.3%
viability, T/C [12]: 13.2%
viability, T/C [13]: 5.36%
viability, T/C [14]: 5.11%
viability, T/C [15]: 5.35%
viability, T/C [40]: 25.6%
viability, T/C [41]: 25.4%
viability, T/C [18]: 14.6%
viability, T/C [19]: 4.77%
viability, T/C [20]: 4.77%
viability, T/C [21]: 4.71%
viability, T/C [42]: 27%
viability, T/C [43]: 25%
viability, T/C [24]: 13.6%
viability, T/C [25]: 5.37%
viability, T/C [26]: 6.01%
viability, T/C [27]: 4.79%
viability, T/C [44]: 22.5%
viability, T/C [45]: 17.5%
viability, T/C [30]: 14.9%
viability, T/C [31]: 5.78%
viability, T/C [32]: 6.15%
viability, T/C [33]: 7.13%

O=C(c1cc(Cc2n[nH]c(=O)c3ccccc23)ccc1F)N1CCN(C(=O)C2CC2)CC1
viability, T/C (compound 0.0316 µM): 92.4% and 88.5%
viability, T/C (compound 0.1 µM): 97.9% and 79.2%
viability, T/C (compound 0.316 µM): 85.6% and 79.3%
viability, T/C (compound 1 µM): 72.1% and 69.9%
viability, T/C (compound 3.16 µM): 68.6% and 53.2%
viability, T/C (compound 10 µM): 56.6% and 32.6%
IC50 (curve of compound): > 10000 nM and 3920 nM

O=C(C=Cc1cccc(S(=O)(=O)Nc2ccccc2)c1)NO
viability, T/C (compound 0.00949 µM): 82.2% and 70.1%
viability, T/C (compound 0.03 µM): 62.3% and 50.3%
viability, T/C (compound 0.0949 µM): 52.9% and 31.3%
viability, T/C (compound 0.3 µM): 24.5% and 17.3%
viability, T/C (compound 0.949 µM): 13.2% and 0.72%
IC50 (curve of compound): 81.6 nM and 30.6 nM
